Consider two molecules from patent US20040023981A1, “Salt forms with tyrosine kinase activity” (priority 2002, published 2004).

≈ marks a conversion by molar mass, not a printed value.

Data set [1] concerns the target T1, human KDR (Homo sapiens, UniProt P35968).
T1 construct: cloning the cytoplasmic domain of the KDR kinase as an in frame fusion at the carboxy terminus of the GST gene; made in house; host or cells: Spodoptera frugiperda (Sf21) insect cells, baculovirus vector pAcG2T
As to the kind of experiment: VEGF Receptor Kinase Assay. The class given is biochemical.
Method: VEGF receptor kinase activity is measured by incorporation of radio-labeled phosphate into polyglutamic acid, tyrosine, 4:1 (pEY) substrate. The phosphorylated pEY product is trapped onto a filter membrane and the incorporation of radio-labeled phosphate quantified by scintillation counting.
The intracellular tyrosine kinase domains of human KDR (Terman, B. I. et al. Oncogene (1991) vol. 6, pp. 1677-1683.) and Flt-1 (Shibuya, M. et al. Oncogene (1990) vol. 5, pp. 519-524) were cloned as glutathione S-transferase (GST) gene fusion proteins. This was accomplished by cloning the cytoplasmic domain of the KDR kinase as an in frame fusion at the carboxy terminus of the GST gene. Soluble recombinant GST-kinase domain fusion proteins were expressed in Spodoptera frugiperda (Sf21) insect cells (Invitrogen) using a baculovirus expression vector (pAcG2T, Pharmingen).
1) Add 5 μl of inhibitor or control to the assay in 50% DMSO.
2) Add 35 μl of reaction mix containing 5 μl of 10× reaction buffer, 5 μl 25 mM ATP/10 μCi [^33P]ATP (Amersham), and 5 μl 10× substrate.
3) Start the reaction by the addition of 10 μl of KDR (25 nM) in enzyme dilution buffer.
4) Mix and incubate at room temperature for 15 minutes.
5) Stop by the addition of 50 μl stop solution.
6) Incubate for 15 minutes at 4° C.
7) Transfer a 90 μl aliquot to filter plate.
8) Aspirate and wash 3 times with wash solution. […]

A short description of data set [2]: physchem. To be noted: thermodynamic from solid, room temperature.

T1 sequence (P35968 786-1356 limits assumed): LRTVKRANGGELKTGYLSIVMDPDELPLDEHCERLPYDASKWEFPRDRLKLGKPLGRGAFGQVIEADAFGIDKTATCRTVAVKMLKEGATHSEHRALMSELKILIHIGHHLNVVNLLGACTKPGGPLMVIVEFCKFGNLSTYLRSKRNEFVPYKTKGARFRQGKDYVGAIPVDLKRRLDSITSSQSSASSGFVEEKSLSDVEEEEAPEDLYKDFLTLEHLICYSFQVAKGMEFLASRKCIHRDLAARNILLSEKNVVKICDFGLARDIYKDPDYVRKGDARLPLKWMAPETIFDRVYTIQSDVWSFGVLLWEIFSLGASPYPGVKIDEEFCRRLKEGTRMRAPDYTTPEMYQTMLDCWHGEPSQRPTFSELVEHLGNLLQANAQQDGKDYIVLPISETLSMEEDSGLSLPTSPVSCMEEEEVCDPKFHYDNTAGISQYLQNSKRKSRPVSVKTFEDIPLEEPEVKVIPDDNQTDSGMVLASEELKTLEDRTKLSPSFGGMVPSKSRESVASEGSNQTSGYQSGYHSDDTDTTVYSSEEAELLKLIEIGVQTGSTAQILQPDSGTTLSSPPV

As to `CNC(=O)N1CCN(Cc2ccnc(Nc3ncc(C#N)s3)c2)CC1` [Compound 4-4, 4-[2-(5-cyano-thiazol-2-ylamino)-pyridin-4-ylmethyl]-piperazine-1-carboxylic acid methylamide], the kinase inhibitory activity entry in data set [1] is on record as “inhibits the kinase KDR”.
Usually solubility stands for how much of the substance goes into solution per volume. A lower solubility goes with little dissolved substance. As for `CNC(=O)N1CCN(Cc2ccnc(Nc3ncc(C#N)s3)c2)CC1` [Form C, 4-[2-(5-cyano-thiazol-2-ylamino)-pyridin-4-ylmethyl]-piperazine-1-carboxylic acid methylamide], the solubility in data set [2] (50% aqueous IPA, aqueous with cosolvent or surfactant or cyclodextrin) is 12.3 mg/mL (≈ 34.4 mM); in data set [2] (50% aqueous ethanol, aqueous with cosolvent or surfactant or cyclodextrin), 10.4 mg/mL (≈ 29.1 mM); in data set [2] (water, pH 2.9, water) it was 6 mg/mL (≈ 16.8 mM).
